Test results reported in PMC12333015, “Profiling the Impact of mGlu7/Elfn1 Protein Interactions on the Pharmacology of mGlu7 Allosteric Modulators” (ACS Chemical Neuroscience, 2025).

System: pyramidal cell to SST-IN synapses in the prefrontal cortex
Assay: Ex vivo whole-cell electrophysiology, eEPSCs recorded from SST-INs in prefrontal cortex slices
Assay type: cell-based, mouse
From the text: Shown in Figure A are representative traces of eEPSCs recorded from SST-INs in response to 5-pulse stimulation with baseline in black, illustrating the characteristic facilitating nature of pyramidal cell (PYR) to SST-IN synapses.
Transgenic mice (both male and female) expressing tdTomato fluorescent protein in SST-INs were used in this study. They were generated by crossing female homozygous SST-Cre (Sst^tm2.1(cre)Zjh/J, Stock #: 013044, Jackson Laboratories) with male homozygous Ai9 mice (B6;Cg-Gt(Rosa)-26Sor^tm9(CAG‑tdTomato)Hze/J, Stock #: 007909, Jackson Laboratories). All animals were group housed with food and water available ad libitum, kept under a 12 h light/dark cycle with lights on from 6:00 AM to 6:00 PM, and were used for experiments during the light phase. All of the experimental procedures were approved by the Vanderbilt University Animal Care and Use committee and followed the guidelines set forth by the Guide for the Care and Use of Laboratory Animals. […] Whole cell recordings were made from visually identified, fluorescence-labeled SST-INs in layer V of PFC slices under the upright microscope. […] Excitatory postsynaptic currents (EPSCs) were recorded from layer V SST-INs at a holding potential of −80 mV and evoked by electrical stimulation (100 μs duration, applied every 15 s) through a concentric bipolar stimulating electrode placed around 100–150 μm from the recorded cell. The holding potential of −80 mV under voltage clamp is closed to the calculated reversal potential of Cl^– and thus the EPSCs recorded in the present studies had minimal GABAA-mediated component. Electrical stimulation applied near the recorded cell in the cortex presumably activates the local neurons preferentially. […] Data were analyzed using Clampfit 10 (Molecular Devices), Excel (Microsoft), and Prism (GraphPad Software), and presented as mean ± SEM. […]

O=C(Nc1ccc(Oc2ccc(Cl)cn2)c(Cl)c1)c1ccccn1 [VU0422288]
effect on eEPSC amplitude (10 μM VU0422288 alone, compared to baseline): no change in eEPSC amplitude | effect on eEPSCs of combination with L-AP4 (30 μM L-AP4 + 10 μM VU0422288, compared to L-AP4 alone): further depression of eEPSCs
